For data set [1], the system named is RNase A, RNase 1, and RNase T1. Briefly: Substrate optimization in ribonuclease assays (visual and fluorometric detection). The note with it: 28 Substrate ODNs compared. It counts as biochemical. The protocol: Nuclease assays were conducted using the method of the invention with both visual and fluorometric detection methods. Substrates were individually mixed in 1× Assay Buffer at a concentration of 50 nM (50 pmoles oligonucleotide in 1 ml volume) for fluorometric detection or at a concentration of 500 nM (50 pmoles of oligonucleotide in 100 ul volume) for visual detection. Test nucleases were added to respective Assay Mixes beginning at 1 ul stock reagent and proceeding with a 1:10 serial dilution until undetectable. Reaction mixes were incubated at 37° C. for 60 minutes. Fluorometric detection was performed as outlined in Example 2. Visual detection was performed as outlined in Example 1.
Different Substrates were examined for reactivity with RNase A, RNase 1, and RNase T1. A Substrate composition that contains all 4 ribonucleotide bases in an optimized sequence might be sensitive to most ribonuclease activities and could function as a stand-alone reagent for the Assay. Alternatively, a mix of Substrates could be used (for example, wherein one Substrate contains adenosine, one contains guanosine, one contains uridine, and one contains cytosine residues). Both possibilities were tested. […] Substrates having different base sequence were compared for sensitivity. […] Sequence dependence for RNase T1 was pronounced with cleavage preference being ‘gg’>‘gc’>‘ga’>‘gu’. […]

The target of data set [2] is RNase T1 (Aspergillus oryzae, UniProt P00651). Briefly: Fluorometric detection nuclease assay, RNase T1. Particulars: Substrate 50 nM, 37° C. 1 hour. In kind it is biochemical. As for the experimental part:
(§1) Nuclease assays were conducted using the method of the invention. The Substrate (SEQ ID NO:30) was mixed in 1× Assay Buffer at a concentration of 50 nM (150 pmoles oligonucleotide in 3 mls volume). Test nucleases were added to respective Assay Mixes, including 1 ul of RNase A (1 ug), 1 ul of RNase 1 (100 units), or 1 ul of RNase T1 (1000 units). […] Assays were set up directly in cuvettes as follows:
(§2) Assay Mixes were incubated at 37° C. for 1 hour. Assays were transferred to cuvettes and fluorescence emission at 520 nm was measured using a PTI fluorometer with 490 nm excitation. Substrate SEQ ID NO:30, a preferred Substrate of the invention, reacted with (i.e., detected) all three RNase enzymes, verifying that Substrate compositions of the invention are sensitive to a variety of RNase enzymes.
Assays were conducted using the method of the invention with fluorometric detection. Substrate SEQ ID NO:30 was mixed in 1× Assay Buffer at a concentration of 50 nM (50 pmoles ODN in 1.0 ml volume) in RNase-free disposable cuvettes. […] Dilutions of stock RNase A, RNase 1, and RNase T1 were made in water. […] Assays were incubated at 37° C. for 1 hour and examined for fluorescence emission at 520 nm using 490 nm excitation in a PTI fluorometer. […]

Data set [3] is described as follows: Ribonuclease assay on an environmental sample (tapwater), visual detection. In kind it is biochemical. Particulars: with Assay Buffer, Substrate 500 nM, room temperature 10 minutes. As for the experimental part: Nuclease assays were conducted using the method of the invention. Dilutions of the test sample (tapwater) were made in nuclease-free water both with and without the addition of Assay Buffer. Samples were tested having 100%, 50%, 25%, 10%, 5%, and 1% tapwater. Assay Mixes contained test sample (diluted or undiluted tapwater) and Substrate (SEQ ID NO:30) at a concentration of 500 nM (50 pmoles ODN in 100 ul volume). Control Assay Mixes were in nuclease-free water without added tapwater. Duplicate Assays were performed with and without 1× Assay Buffer. Assay Mixes were incubated at room temperature for 10 minutes. Reactions were visually examined for fluorescence emission in the assay tubes without further manipulation. Tubes were suspended above an ultraviolet light source, visually inspected, and photographed using a digital camera. […] The test samples (with tapwater) emitted fluorescent signal. With Assay Buffer, tapwater was detectable when diluted to as little as 10 parts-per-thousand (1%). Without Assay Buffer, the assay was less sensitive and fluorescent emission was less intense. Addition of Buffer thus led to improved assay sensitivity.

Data set [4] addresses T1, RNase A (Bos taurus, UniProt P61823).
T1 sequence (P61823 27-150): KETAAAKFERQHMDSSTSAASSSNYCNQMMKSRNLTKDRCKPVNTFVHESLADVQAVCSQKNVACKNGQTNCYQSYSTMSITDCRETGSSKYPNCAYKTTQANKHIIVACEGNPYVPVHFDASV
Briefly: Fluorometric detection nuclease assay, RNase A. In kind it is biochemical, mammalian. The note with it: Substrate 50 nM. The protocol:
Nuclease assays were conducted using the method of the invention. SEQ ID NO:2 and SEQ ID NO:3 oligonucleotides were individually mixed in 1× Assay Buffer at a concentration of 50 nM (150 pmoles oligonucleotide in 3 mls volume). […] Assays were set up directly in cuvettes as follows:
Assay Mixes were incubated at 37° C. for 1 hour. Fluorescence emission spectra were measured using a PTI fluorometer with 490 nm excitation. Substrate SEQ ID NO:2 (having chimeric RNA-DNA composition) reacted with both DNase I (undesired) and RNase A (desired).
as §1, §2
Substrate SEQ ID NO:30 was mixed in 1× Assay Buffer at a concentration of 50 nM (150 pmoles oligonucleotide in 3 mls volume). RNase A was added at final concentrations of 10 ng/ml, 2 ng/ml, 1 ng/ml, and 0.4 ng/ml. […] Assay mixes were incubated at 37° C. in a cuvette directly in a PTI fluorometer. Fluorescence emission at 520 nm with 490 nm excitation was measured over time. At high nuclease concentrations, the reaction goes rapidly to completion. At lower nuclease concentrations, the reaction rate decreases but with longer incubation times an easily detectable signal is generated. Substrate concentration is fixed and input enzyme (i.e., the test sample) varies. Since the background is stable (monitored in the control reaction), use of extended incubation periods will increase the sensitivity of the assay.
Assays were conducted using the method of the invention with fluorometric detection. Substrate SEQ ID NO:30 was mixed in 1× Assay Buffer at a concentration of 50 nM (50 pmoles ODN in 1.0 ml volume) in RNase-free disposable cuvettes. […] Dilutions of stock RNase A, RNase 1, and RNase T1 were made in water. Undiluted and diluted nuclease (1 ul) was added to respective 1.0 ml Assay Mixes resulting in final dilution factors of 10^−3, 10^−4, 10^−5, 10^−6, 10^−7, 10^−8, and 10^−9. Assays were incubated at 37° C. for 1 hour and examined for fluorescence emission at 520 nm using 490 nm excitation in a PTI fluorometer. Final enzyme concentration reported notes the lowest concentration tested that was reproducibly positive with a signal:noise ratio of at least 2:1.

Chain of RNase T1 (P00651 27-130): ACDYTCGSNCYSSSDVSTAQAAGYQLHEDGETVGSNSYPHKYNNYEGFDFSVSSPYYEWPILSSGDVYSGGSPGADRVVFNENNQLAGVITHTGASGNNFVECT

As for “5′ Fluorescein-AauggcA-QSY-7 3′ (NAAUGGCAN; 5' fluorescein and 3' QSY-7 labels, nucleotide chemistry not given here) [SEQ ID NO:30]”, in data set [1], the “Relative activity / sensitivity among Substrates tested” value is “most active”. For the same substance, the “Reactivity with RNase T1 (fluorometer)” value in data set [2] (RNase T1 333 units/ml, emission 520 nm, 490 nm excitation) was “reacted”. The “Enzyme Concentration, lowest tested reproducibly positive with signal:noise at least 2:1, RNase T1” value in data set [2] (fluorometric detection, dilution factor 10^−8) was found to be 0.00001 units/ml. The “Lowest tapwater concentration detectable” value in data set [3] worked out at 1%. Also, the “Reactivity with RNase A (fluorometer)” value in data set [4] (RNase A 0.33 ug/ml, 37° C. 1 hour, 490 nm excitation) is listed as “reacted”. Further, the “Assay background (hydrolysis of the Substrate) over time” value in data set [4] (control reaction without ribonuclease, 1× Assay Buffer, 37° C.) was “stable”. Further, the “Enzyme Concentration, lowest tested reproducibly positive with signal:noise at least 2:1, RNase A” value in data set [4] (fluorometric detection, 37° C. 1 hour, dilution factor 10^−8) was 10 pg/mL.

These data come from patent publication US7276337B2, “Compositions and methods for visual ribonuclease detection assays” (Integrated DNA Technologies, Inc., priority 2000, dated 2007).
